Measurements: ChEMBL document CHEMBL1201862, “PubChem BioAssay data set” (2004)
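Interpolation was linear, between the two tested concentrations surrounding the appropriate level; five concentrations were tested over 48 hours in 96-well plates. At the GI50, growth is halved.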 The source made the active and inactive calls. Rule as the data show it: active = GI50 up to about 1.1 µM and inactive = higher.

What was measured:
Test in all cases: inhibition of tumour cell growth, NCI panel, 48 h
DLD-1 = test system: DLD-1
DMS-114 = test system: DMS-114
KM-20L2 = test system: KM-20L2
LXFL 529 = test system: LXFL 529
M19-MEL = test system: M19-MEL
RXF 631 = test system: RXF 631
SNB-78 = test system: SNB-78
XF498 = test system: XF498
HOP-18 = test system: HOP-18

| Structure (SMILES) | GI50 (DLD-1) | GI50 (DMS-114) | GI50 (KM-20L2) | GI50 (LXFL 529) | GI50 (M19-MEL) | GI50 (RXF 631) | GI50 (SNB-78) | GI50 (XF498) | GI50 (HOP-18) |
| --- | --- | --- | --- | --- | --- | --- | --- | --- | --- |
| N#CCCN(CCC#N)c1ccc(/C=N\c2nc(-c3ccccc3)cs2)cc1 | > 100 µM (inactive) | 73.3 µM (inactive) | > 100 µM (inactive) | > 100 µM (inactive) | > 100 µM (inactive) | > 100 µM (inactive) | > 100 µM (inactive) | 56.8 µM (inactive) | – |
| Oc1ccc2c(c1)CC[N+]1=C2CCC2CCCC21 (centres undefined) [QUINDONIUM BROMIDE] | > 100 µM (inactive) | > 100 µM (inactive) | – | > 100 µM (inactive) | > 100 µM (inactive) | – | – | – | – |
| O=S(=O)(O)SC/C=C\CSS(=O)(=O)O | > 100 µM (inactive) | > 100 µM (inactive) | > 100 µM (inactive) | > 100 µM (inactive) | > 100 µM (inactive) | > 100 µM (inactive) | > 100 µM (inactive) | > 100 µM (inactive) | > 100 µM (inactive) |
| O=c1/c(=C/c2ccc3c(c2)OCO3)sc2nnc(Cc3ccccc3)n12 | > 100 µM (inactive) | > 100 µM (inactive) | > 100 µM (inactive) | > 100 µM (inactive) | > 100 µM (inactive) | – | > 100 µM (inactive) | – | 88.1 µM (inactive) |
| CCOc1ccc(N2C(=O)C3c4[nH]c5ccccc5c4C4CCC(C(C)(C)C)CC4C3C2=O)cc1 (centres undefined) | 88.9 µM (inactive) | 50 µM (inactive) | 77.8 µM (inactive) | > 100 µM (inactive) | – | – | 90.2 µM (inactive) | > 100 µM (inactive) | > 100 µM (inactive) |
| O=c1ccc2ccc(O)c3c4c(O)ccc5ccc(=O)c(c1c23)c54 | 1.64 µM (inactive) | 1.51 µM (inactive) | – | – | 0.69 µM (active) | – | – | 1.79 µM (inactive) | 2.26 µM (inactive) |
| C=C[C@@H](C)[C@]1(C(=O)OC)CCCC12OCCO2 | > 100 µM (inactive) | > 100 µM (inactive) | > 100 µM (inactive) | > 100 µM (inactive) | > 100 µM (inactive) | – | – | > 100 µM (inactive) | > 100 µM (inactive) |
| C=C1C(=O)OC2(C)C3CCC(C3)C12 (centres undefined) | 51.1 µM (inactive) | 46.6 µM (inactive) | 45.1 µM (inactive) | – | 44.8 µM (inactive) | – | 34.4 µM (inactive) | 29.1 µM (inactive) | > 100 µM (inactive) |
| CCCCCCCCCCCCC(SCCNC(=O)CCNC(=O)C(O)C(C)(C)COP(=O)(O)OP(=O)(O)OCC1OC(n2cnc3c(N)ncnc32)C(O)C1OP(=O)(O)O)C(=O)NCC(N)=O (centres undefined) | > 100 µM (inactive) | 95.1 µM (inactive) | > 100 µM (inactive) | > 100 µM (inactive) | > 100 µM (inactive) | > 100 µM (inactive) | – | – | 37.8 µM (inactive) |
| CCOc1ccc(NC(=O)CC2SC(Nc3ccc(Cl)cc3)=NC2=O)cc1 (centres undefined) | 36 µM (inactive) | > 100 µM (inactive) | > 100 µM (inactive) | 41.8 µM (inactive) | > 100 µM (inactive) | > 100 µM (inactive) | – | > 100 µM (inactive) | > 100 µM (inactive) |
